For test [1], the target named is T1, purified bovine brain PI 3-kinase (Bos taurus, UniProt P32871).
T1 construct: PI 3-kinase was prepared from bovine brain; from tissue; host or cells: bovine brain
Kind of test: Assay of purified PI 3-kinase activity (32P incorporation into phosphatidylinositol, TLC/scintillation). The format is biochemical. The following applies: bovine brain purified PI 3-kinase. The protocol:
In another, preferred, method, PI 3-kinase was prepared from bovine brain. Two bovine brains (wet weight about 900 g) were obtained from a local slaughterhouse within minutes of slaughter, packed on ice, and homogenized within one hour. Brains were trimmed of excess fat and blood vessels and then homogenized using a Tekmar Tissuemizer (Cincinnati, Ohio) at 4° C. in 20 mM of Tris(pH 8.3) containing 250 mM of sucrose, 6 mM of β-mercaptoethanol, 1 μg/ml of leupeptin, 1 μg/ml of pepstatin A, 0.4 mM of PMSF, and 1 mM of MgCl2.
Following centrifugation for 60 minutes at 10,000×g, the DH of the supernatant (about 1200 mL) was lowered to 5.75 using dropwise addition of 1M acetic acid at 4° C. After stirring for an additional 15 minutes at 4° C., the solution was centrifuged for 60 minutes at 13,500×g. The supernatant was discarded. Pellets were resuspended in Buffer A (20 mM of Tris, pH 8.3, containing 6 mM of β-mercaptoethanol, 0.1 mM of ethylene glycol-bis(β-aminoethyl ether) N,N,N',N'-tetraacetic acid (EGTA), 1 μg/mL of leupeptin, 1 μg/mL of pepstatin A, and 1 mM of MgCl2), and loaded onto a Fast Flow Q Sepharose column (300 ml) at a flow rate of 5 mL/min at 4° C. After loading, the column was washed with 3 volumes of Buffer A containing 0.1M of KCl and the kinase was then eluted with a linear gradient of Buffer A/0.1M KCl to Buffer A/O.6M KCl at 3 mL/min over 7 volumes.
Fractions were assayed for PI 3-kinase activity using 10 μL of the fraction and phosphatidylinositol as substrate as described below. […] The PI 3-kinase pool was subjected to a 40% ammonium sulfate precipitation. Following centrifugation (60 minutes at 13,500×g), pellets were resuspended in Buffer B (10 mM of potassium phosphate, pH 7.4, containing 6 mM of β-mercaptoethanol, 1 μg/mL of leupeptin, 1 μg/mL of pepstatin A, and 1 mM of MgCl2), and loaded onto a 50 mL hydroxylapatite column (Calbiochem, Inc., La Jolla, Calif.) at 2.5 mL/minute. The column was washed with 150 mL Buffer B until the A280 baseline reached zero, and the kinase was then eluted with a linear gradient of 10-320 mM of KH2 PO4 at 1 mL/minute over 450 minutes.
Active fractions were pooled and then loaded at 3 mL/minute onto a MonoS column (8 ml) (Pharmacia, Inc., Piscataway, N.J.) equilibrated in Buffer C (50 mM of MES, pH 6.2, containing 6 mM of β-mercaptoethanol, 0.1 mM of EGTA, 1 μg/mL of leupeptin, 1 μg/mL of pepstatin A, and 1 mM of MgCl2). PI 3-kinase was eluted with a linear gradient of 0-0.4M KCl in Buffer C over 120 minutes. […] Therefore, the MonoS flow-through was concentrated by tangential flow filtration on a Mini-Ultrasette Omega 50 K membrane (Filtron, Inc., Northborough, Mass.) and diluted in Buffer C to lower the conductivity. The material was then reloaded onto the MonoS column using the above conditions. […] Two pools of phosphatidylinositol kinase activity were obtained in the gradient; each was assayed for PI 3-kinase and PI 4-kinase activity.
Pool I from the MonoS column was diluted with Buffer A and chromatographed on MonoQ (1 ml) and ehted with a gradient of 0-0.4M KCl in Buffer A. The final pool was assayed for PI 3-kinase and PI 4-kinase activity.
PI 3-kinase activity was measured as previously described by Matter, W. F., et al., Biochemical and Biophysical Research Communications, 186:624-631 (1992).

Test [2] deals with protein kinase C. The settings on record: Matter, et al.; cited from earlier work.
Another test relates to PI 3-kinase. The settings on record: Matter, et al.; cited from earlier work.
The test system of test [3] is PI 4-kinase. The settings on record: Matter, et al.; cited from earlier work.
The test system of test [4] is PI 3-kinase in v-sis NIH 3T3 cells. Kind of test: Assay of whole cell PI 3-kinase activity (PDGF-stimulated phosphatidylinositol-3-phosphate formation). The format is cell-based. The following applies: 1.3 μM, 100 ng/mL PDGF, 10 min contact before stimulation. The protocol: The cells were washed with phosphate-free DMEM and incubated in the same medium containing 0.1% fatty acid free bovine serum, albumin and 0.15 mCi/mL [^32 P]H3 PO4 (ICN Biomedicals, Irvine, Calif.) for 70 minutes. Inhibitor candidates were prepared using the above-stated procedure, and placed in contact with the cells for 10 minutes prior to their stimulation. The cells were stimulated with 100 ng/mL of PDGF for 10 minutes. To measure phosphatidylinositol-3-phosphates in the cells, the medium was removed and the cells washed once with phosphate buffered saline before adding 4 mL/flask of HCl:methanol (1:1 by volume). The cells were scraped from the flasks and total lipids were extracted by the method described by Folch, J., et al., J. Biol. Chem., 226:497-509 (1957). Deacylated lipids were prepared using methylamine via the method described by Clark, N. G., et al., BioChem J., 195: 301-306, (1981), and separated by HPLC using a 10 cm RAC II Partisil 5 SAX column (Whatman, Kent, U.K.) eluted with an NH4 H2 PO4 gradient at a flow of 0.8 mL/minute as described by Auger, K. R., et al., Methods in Inositide Research, pp. 159-166 [Irvine, R. F., Ed., Raven Press, Ltd., New York, N.Y. (1990)]. Detection of the eluting peaks was by a radioactive flow detector (Flo-One Beta, Model A515, Radiomatic Instruments, Meriden, Conn.). […]

Test [5] has as its system protein kinase C. Kind of test: Effect on protein kinase C. The format is biochemical.
For the next test, the system named is phospholipase C. Nature of the test: Effect on phospholipase C. The format is biochemical.
Test [6] deals with PI 4-kinase. Kind of test: Effect on PI 4-kinase. The format is biochemical.
Test [7] addresses c-src protein tyrosine kinase (Homo sapiens, UniProt P12931). Nature of the test: Effect on c-src protein tyrosine kinase. It counts as biochemical.
The mark [8] stands for this setting: 10 min preincubation, 20 μM ATP, 3% DMSO, read-out: IC50 (ng/mL) (converted).
The mark [9] stands for this setting: IC50 (ng/mL), 10 min preincubation, 20 μM ATP, 3% DMSO.
Setting [10] is: IC50, molar value in parentheses, value printed in parentheses beside ng/mL.

Where two headings read alike, the source gives them in different places.

The source of these data is patent US5378725A, “Inhibition of phosphatidylinositol 3-kinase with wortmannin and analogs thereof” (The Arizona Board of Regents, priority 1993, dated 1995).

T1 sequence (P32871 whole entry): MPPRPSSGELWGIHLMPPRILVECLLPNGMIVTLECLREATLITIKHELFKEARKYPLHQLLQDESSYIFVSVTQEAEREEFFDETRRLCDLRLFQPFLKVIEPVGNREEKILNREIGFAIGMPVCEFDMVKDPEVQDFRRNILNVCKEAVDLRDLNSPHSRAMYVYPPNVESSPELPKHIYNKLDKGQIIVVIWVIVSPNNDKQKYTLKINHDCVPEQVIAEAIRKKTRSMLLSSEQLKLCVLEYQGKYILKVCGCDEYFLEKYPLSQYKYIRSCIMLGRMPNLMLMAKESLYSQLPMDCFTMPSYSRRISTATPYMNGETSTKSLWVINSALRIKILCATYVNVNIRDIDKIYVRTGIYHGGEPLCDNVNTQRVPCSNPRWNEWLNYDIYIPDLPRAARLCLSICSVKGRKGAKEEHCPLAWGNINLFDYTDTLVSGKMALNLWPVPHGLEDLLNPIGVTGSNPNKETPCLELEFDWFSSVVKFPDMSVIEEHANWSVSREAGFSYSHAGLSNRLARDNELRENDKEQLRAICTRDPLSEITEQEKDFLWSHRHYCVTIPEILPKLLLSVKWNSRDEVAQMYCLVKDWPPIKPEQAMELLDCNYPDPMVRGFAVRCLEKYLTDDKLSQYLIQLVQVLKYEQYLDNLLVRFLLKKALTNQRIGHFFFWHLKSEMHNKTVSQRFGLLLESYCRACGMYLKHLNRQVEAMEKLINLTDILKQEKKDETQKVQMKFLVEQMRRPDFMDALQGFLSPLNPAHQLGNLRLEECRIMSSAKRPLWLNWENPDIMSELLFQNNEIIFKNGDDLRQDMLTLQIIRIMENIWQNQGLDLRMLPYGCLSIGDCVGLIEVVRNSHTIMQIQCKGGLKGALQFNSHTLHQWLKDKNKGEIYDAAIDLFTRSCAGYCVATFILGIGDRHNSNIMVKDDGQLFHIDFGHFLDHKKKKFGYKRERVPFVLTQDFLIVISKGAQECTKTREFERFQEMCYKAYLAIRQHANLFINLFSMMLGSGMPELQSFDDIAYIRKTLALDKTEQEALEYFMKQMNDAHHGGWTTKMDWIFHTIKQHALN
T1 sequence (P23727 whole entry partner): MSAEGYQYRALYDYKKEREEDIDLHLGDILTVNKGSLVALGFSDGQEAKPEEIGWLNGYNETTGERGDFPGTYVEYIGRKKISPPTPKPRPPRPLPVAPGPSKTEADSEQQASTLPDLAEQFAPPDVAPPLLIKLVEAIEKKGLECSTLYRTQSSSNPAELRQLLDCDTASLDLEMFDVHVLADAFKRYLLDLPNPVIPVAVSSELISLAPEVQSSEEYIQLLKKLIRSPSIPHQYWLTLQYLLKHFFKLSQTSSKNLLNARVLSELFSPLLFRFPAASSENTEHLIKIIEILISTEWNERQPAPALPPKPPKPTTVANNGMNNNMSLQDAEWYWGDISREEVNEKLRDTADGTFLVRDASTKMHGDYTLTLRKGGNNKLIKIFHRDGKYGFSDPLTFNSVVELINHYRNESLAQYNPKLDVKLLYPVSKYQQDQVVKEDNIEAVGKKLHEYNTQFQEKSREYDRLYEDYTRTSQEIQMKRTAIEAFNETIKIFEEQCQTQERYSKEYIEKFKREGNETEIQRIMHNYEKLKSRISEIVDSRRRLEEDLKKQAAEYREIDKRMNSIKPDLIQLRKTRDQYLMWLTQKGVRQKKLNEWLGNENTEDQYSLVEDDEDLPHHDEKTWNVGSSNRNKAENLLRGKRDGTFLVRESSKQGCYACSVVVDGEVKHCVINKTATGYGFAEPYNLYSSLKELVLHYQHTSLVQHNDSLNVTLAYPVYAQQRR
Chain of c-src protein tyrosine kinase (P12931 whole entry): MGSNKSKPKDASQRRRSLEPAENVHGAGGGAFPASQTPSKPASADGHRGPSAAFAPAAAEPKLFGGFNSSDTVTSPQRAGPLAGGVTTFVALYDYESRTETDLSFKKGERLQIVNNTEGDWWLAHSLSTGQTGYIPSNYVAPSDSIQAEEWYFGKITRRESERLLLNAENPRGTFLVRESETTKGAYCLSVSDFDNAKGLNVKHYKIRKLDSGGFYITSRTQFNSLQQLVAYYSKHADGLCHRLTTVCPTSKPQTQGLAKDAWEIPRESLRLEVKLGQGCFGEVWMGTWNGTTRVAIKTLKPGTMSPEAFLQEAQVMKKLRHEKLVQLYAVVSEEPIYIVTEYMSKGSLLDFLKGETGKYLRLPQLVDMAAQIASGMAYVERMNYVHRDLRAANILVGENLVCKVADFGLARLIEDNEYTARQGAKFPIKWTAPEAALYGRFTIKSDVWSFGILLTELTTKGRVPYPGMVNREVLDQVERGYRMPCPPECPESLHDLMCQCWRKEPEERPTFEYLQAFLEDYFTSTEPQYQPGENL

Take `COC(=O)c1coc2c(O)c3c(c(C)c12)C=C[C@]1(C)C(=O)CC[C@@H]31` [IIIb, opened A-ring methyl ester of wortmannin]: the IC50 in [1] (setting [8]) is 4600 nM.

Consider `COC[C@H]1OC(=O)c2coc3c2[C@@]1(C)C1=CC[C@]2(C)C(=O)CC[C@H]2[C@@H]1C3=O` [II, Δ9,11-dehydrodesacetoxywortmannin], for which the IC50 was 54 nM in test [1] (setting [9]) and 59 nM in test [1] (setting [10]).

On to `COC[C@H]1OC(=O)c2coc3c2[C@@]1(C)C1=C(C3=O)[C@@H]2CCC(=O)[C@@]2(C)CC1` [Ib, 11-desacetoxywortmannin], for which the IC50 in test [1] (setting [8]) was 16.7 nM; in test [1] (value printed in parentheses beside ng/mL, read-out: IC50, molar value in parentheses) it was 16.7 nM.

As for `O=c1c(O)c(-c2ccc(O)c(O)c2)oc2cc(O)cc(O)c12` [quercetin], in the test with protein kinase C [2], the “inhibition of protein kinase C” value is given as “inhibit”. Also, the “inhibition of PI 3-kinase” value in the test on PI 3-kinase was “inhibit”. The “inhibition of PI 4-kinase” value in the test with PI 4-kinase [3] is listed as “inhibit”.

Consider `COC[C@H]1OC(=O)c2coc3c2[C@@]1(C)C1=C(C3=O)[C@@H]2CCC(=O)[C@@]2(C)C[C@H]1OC(C)=O` [Ia, wortmannin], for which, in test [4], the “inhibition of platelet derived growth factor stimulated phosphatidylinositol-3-phosphate formation in whole cells” value is listed as “almost complete inhibition”. In the test on protein kinase C [5], the “effect on protein kinase C” value is listed as “no effect”. The “effect on phospholipase C” value in the test on phospholipase C was “no effect”. Moreover, the IC50 in test [1] (setting [9]) and in test [1] (setting [10]) was 4.2 nM each time. Besides, the “effect on PI 4-kinase” value with PI 4-kinase [6] was “no effect”. The “effect on c-src protein tyrosine kinase” value in test [7] is on record as “no effect”.
